The results in this text go back to patent US11351178B2, “Selective HDAC6 inhibitors” (ITALFARMACO S.P.A., priority 2017, dated 2022).

pIC50: −log10 of the molar value.

Assay [1] concerns the target T1, HDAC10 (Homo sapiens, UniProt Q969S8).
T1 construct: purchased BPS 50010
T1 sequence (Q969S8 1-669): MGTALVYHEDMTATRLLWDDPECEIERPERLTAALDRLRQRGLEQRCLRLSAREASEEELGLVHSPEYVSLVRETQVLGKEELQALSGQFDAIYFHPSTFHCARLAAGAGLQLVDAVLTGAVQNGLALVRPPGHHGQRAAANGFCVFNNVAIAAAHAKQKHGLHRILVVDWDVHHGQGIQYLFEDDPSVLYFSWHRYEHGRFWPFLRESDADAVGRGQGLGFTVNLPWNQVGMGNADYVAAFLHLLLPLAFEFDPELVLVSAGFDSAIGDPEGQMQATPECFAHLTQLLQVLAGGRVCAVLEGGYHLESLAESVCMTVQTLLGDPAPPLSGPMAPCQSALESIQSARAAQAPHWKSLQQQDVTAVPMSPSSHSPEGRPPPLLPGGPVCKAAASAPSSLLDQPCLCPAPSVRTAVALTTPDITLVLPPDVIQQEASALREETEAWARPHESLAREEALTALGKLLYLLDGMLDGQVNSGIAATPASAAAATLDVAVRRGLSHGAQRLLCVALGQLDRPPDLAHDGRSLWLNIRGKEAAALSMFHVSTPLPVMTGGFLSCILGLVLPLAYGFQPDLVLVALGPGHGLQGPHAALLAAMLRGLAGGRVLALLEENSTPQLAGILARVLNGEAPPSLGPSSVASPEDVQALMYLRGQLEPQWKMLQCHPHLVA
Description: Enzymatic test HDAC10. The class given is biochemical. The note with it: Table 3.

Assay [2] concerns the target T2, HDAC11 (Homo sapiens, UniProt Q96DB2).
T2 construct: purchased BML SE560
T2 sequence (Q96DB2 1-347): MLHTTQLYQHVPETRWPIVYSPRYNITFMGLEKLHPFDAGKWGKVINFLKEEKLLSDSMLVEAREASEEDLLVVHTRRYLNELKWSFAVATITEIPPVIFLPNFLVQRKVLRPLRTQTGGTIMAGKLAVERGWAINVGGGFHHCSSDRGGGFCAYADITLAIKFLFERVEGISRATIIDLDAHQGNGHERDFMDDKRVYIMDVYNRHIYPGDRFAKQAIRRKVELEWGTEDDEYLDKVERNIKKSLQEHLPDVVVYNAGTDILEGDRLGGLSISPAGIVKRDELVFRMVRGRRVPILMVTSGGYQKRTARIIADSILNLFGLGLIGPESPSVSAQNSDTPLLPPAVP
Description: Enzymatic test HDAC11. The class given is biochemical. The following applies: Table 3. The procedure:
After a period of incubation at 30° C. (incubation times vary for different isoforms and are shown in table 1) 25 μL of solution containing the substrate were added. As substrate, FLUOR DE LYS® deacetylase substrate (Enzo Life Sciences, cat #BML-K1104, FdL), FLUOR DE LYS®-Green substrate (Enzo Life Sciences, cat #BML-K1572 FdL_G) and trifluoroacetyl-L-lysine (Tfal)-2× concentrated solution in 25 mM Tris-HCl, pH 8, 130 mM NaCl 0.05% Tween-20 10% glycerol) were used. Following a reaction period at 30° C.

For assay [3], the system named is regulatory T cell (Treg, CD4+CD25+) suppression activity. Description: T CD4 lymphocyte proliferation mediated by mouse regulatory T cells suppression assay. Type of assay: cell-based. The note with it: concentration 1 μM. The procedure:
To evaluate the ability of the molecules under this patent to increase regulatory T cell (Treg, CD4^+CD25^+) suppression activity a T-cell (responder T cells, Teff) proliferation suppression assay was used. Treg cells at different concentrations were cultured with Teff cells (CD4^+CD25^−) in the presence of proliferative stimuli. T cells need of two stimuli to proliferate: the first given by the recognition of antigen associated with MHC by T cell receptor (TCR) and the second one derived from co-stimulatory molecules such as CD28. In the absence of a specific antigen, TCR activation can take place with an antibody recognizing one of the composing subunits, CD3ε. In this assay, anti-CD3ε monoclonal antibody and CD4 T cell depleted splenocytes were used as activator stimuli. Therefore, the ability to reduce Teff cells proliferation by Tregs in the presence or absence of HDAC6 inhibitors was assessed.
Treg and Teff cells were separated using the Treg isolation kit based on magnetic beads separation technique (Miltenyi Biotec) through an initial negative selection and a final positive selection process.
Single cell suspension was obtained from spleen of C57BL/6 mice using a 70 μm strainer.
Cell suspension was treated with ACK buffer to lyse red blood cells and then centrifuged for 5 minutes at 300×g. After centrifugation, the cells were resuspended in PBS (Phosphate Buffered Saline, Gibco) and counted. Subsequently, splenocytes were resuspended in a buffer consisting of PBS, 0.5% BSA and 2 mM EDTA.
To proceed with the first step of Treg separation, CD4 negative cells were indirectly magnetically labeled with a cocktail of biotin-conjugated antibodies against CD8a, CD11b, CD45R, CD49b, Ter-119 and Anti-Biotin MicroBeads CD4+ cells were thus obtained by negative selection as flow-through of a magnetic MACS column.
Cells bound to microbeads were eluted and conserved for their use as antigen presenting cells (APC) in the proliferation assay.
In the second step of Treg purification, pre-enriched CD4+ cells were labelled with an R-phycoerythrin (PE)-conjugated anti-CD25 antibody that preferentially binds to Treg cells and magnetic beads coupled with an anti PE antibody. The cell suspension was then loaded on a column. The Teff cells pass through the column without binding (negative selection), while beads-bound Treg cells adhere through the magnetic beads (positive selection). Treg cells were then eluted from the column by buffer flow using a plunger. Treg and Teff cell purification is summarized in FIG. 6. • CD4− cells from first positive selection as APC • Treg CD4+ CD25+ as suppressor cells • Teff CD4+ CD25− as responder/proliferating cells
CD4^− cells were treated with mitomycin C (50 μg/ml, Sigma) for 30 min at 37° C. to prevent their proliferation They were then resuspended at a concentration of 4.0×10^5/50 μl in complete medium (RPMI, FBS10%, penicillin/streptomycin 1×, 50 μM beta mercaptoethanol). Teffs were labeled with carboxy fluorescein succinimidyl ester (CFSE) at a concentration of 2 μM in PBS at 37° C., and after 10 minutes incubation, the reaction was blocked with a 10% FBS PBS solution. CFSE labelling allows covalent modification of Teff cell to analyse their proliferation by fluorescence dilution. The labelled Teffs were then centrifuged and resuspended at the final concentration of 5.0×10^4/50 μl in complete medium. Finally, the Tregs obtained by purification were diluted to the final concentration of 5.0×10^4/50 μl in complete medium.
Then a co-culture of Teff (5.0×10^4), T CD4^− (4.0×10^5) was prepared and Treg cells in different ratios (1:1, 1:2, 1:4, 1:8 ratio Teff to Treg cells) were added thereto. The test compounds at different concentrations or DMSO vehicle were added to the cell suspension. Finally, an anti-CD3ε monoclonal antibody (Miltenyi Biotec) was added at a concentration of 1 μg/ml. Cells were plated in flat bottom 96-well plates and each condition was set up in a technical duplicate. […]

Regarding `CCN(CC)S(=O)(=O)c1cccc(-c2nnc(Sc3ccc(C(=O)NO)cc3)n2C)c1` [comp. 66, 4-[[5-[3-(diethylsulfamoyl)phenyl]-4-methyl-1,2,4-triazol-3-yl]sulfanyl]benzenecarbohydroxamic acid], the pIC50 is 5.87 in assay [1] and 6.00 in assay [2]. The “RS (relative T-reg suppression, AUC drug/AUC control)” value in assay [3] is reported as 2.6.

On to `Cn1c(Sc2c(F)cc(C(=O)NO)cc2F)nnc1-c1cccs1` [comp. 17, 3,5-difluoro-N-hydroxy-4-((4-methyl-5-(thiophen-2-yl)-4H-1,2,4-triazol-3-yl)thio)benzamide], for which the pIC50 in assay [1] is 5.16; in assay [2], 5.64.

With `O=C(NO)c1cc(F)c(Cn2nnc(-c3scc4c3OCCO4)n2)c(F)c1` [comp. 79, 4-[[5-(2,3-dihydrothieno[3,4-b][1,4]dioxin-5-yl)tetrazol-2-yl]methyl]-3,5-difluoro-benzenecarbohydroxamic acid], the pIC50 in assay [1] was 5.72; in assay [2] it was 6.18. For the same compound, the “RS (relative T-reg suppression, AUC drug/AUC control)” value in assay [3] is given as 1.7.

With `Nn1c(Sc2ccc(C(=O)NO)cc2)nnc1-c1ccc(OC(F)F)cc1` [comp. 28, 4-[[4-amino-5-[4-(difluoromethoxy)phenyl]-1,2,4-triazol-3-yl]sulfanyl]benzenecarbohydroxamic acid], the pIC50 in assay [1] is 6.20; in assay [2], 6.25.

As to `COc1ccc(C(=O)N[C@@H](Cc2cscn2)c2nc(Cc3ccc(C(=O)NO)cc3)no2)cc1OC` [comp. 1, (S)—N-(1-(3-(4-(hydroxycarbamoyl)benzyl)-1,2,4-oxadiazol-5-yl)-2-(thiazol-4-yl)ethyl)-3,4-dimethoxybenzamide], the negative-log IC50 (pIC50) in assay [1] was 5.61; in assay [2] it was 5.57.

As for `CN(C)c1cccc(-c2nnc(Sc3c(F)cc(C(=O)NO)cc3F)n2C)c1` [comp. 80, 4-[[5-[3-(dimethylamino)phenyl]-4-methyl-1,2,4-triazol-3-yl]sulfanyl]-3,5-difluoro-benzenecarbohydroxamic acid], the pIC50 is 5.25 in assay [1] and 5.55 in assay [2].

For `Cn1c(Sc2c(F)cc(C(=O)NO)cc2F)nnc1-c1cccc2ccccc12` [comp. 2, 3,5-difluoro-N-hydroxy-4-((4-methyl-5-(naphthalen-1-yl)-4H-1,2,4-triazol-3-yl)thio)benzamide], the pIC50 in assay [1] was 4.85; in assay [2], 5.09.

`Cn1c(Sc2ccc(C(=O)NO)cc2)nnc1-c1cccs1` [comp. 10, N-hydroxy-4-((4-methyl-5-(thiophen-2-yl)-4H-1,2,4-triazol-3-yl)thio)benzamide]: the pIC50 is 5.55 in assay [1] and 6.01 in assay [2].

As to `O=C(NO)c1cc(F)c(Cn2nnnc2-c2ccccn2)c(F)c1` [comp. 13, 3,5-difluoro-N-hydroxy-4-((5-(pyridin-2-yl)-1H-tetrazol-1-yl)methyl)benzamide], the pIC50 in assay [1] is 5.57; in assay [2] it was 5.83. The “RS (relative T-reg suppression, AUC drug/AUC control)” value in assay [3] amounted to 1.9.

For the compound `O=C(NO)c1cc(F)c(Cn2nnc(-c3ccccn3)n2)c(F)c1` [comp. 6, 3,5-difluoro-N-hydroxy-4-((5-(pyridin-2-yl)-2H-tetrazol-2-yl)methyl)benzamide], the pIC50 is 4.96 in assay [1] and 5.29 in assay [2]. In addition, the “RS (relative T-reg suppression, AUC drug/AUC control)” value in assay [3] is 1.7.

As to `CN(C)c1cccc(-c2nnc(Sc3ccc(C(=O)NO)cc3)n2C)c1` [comp. 77, 4-[[5-[3-(dimethylamino)phenyl]-4-methyl-1,2,4-triazol-3-yl]sulfanyl]benzenecarbohydroxamic acid], the pIC50 in assay [1] was 5.55; in assay [2], 5.84. Besides, in assay [3], the “RS (relative T-reg suppression, AUC drug/AUC control)” value is on record as 2.4.

Consider `CCN(CC)S(=O)(=O)c1cccc(-c2nnc(Sc3ccc(C(=O)NO)cc3)n2N)c1` [comp. 61, 4-[[4-amino-5-[3-(diethylsulfamoyl)phenyl]-1,2,4-triazol-3-yl]sulfanyl]benzenecarbohydroxamic acid], for which the pIC50 in assay [1] is 6.00; in assay [2] it was 6.04. In addition, the “RS (relative T-reg suppression, AUC drug/AUC control)” value in assay [3] was 1.1.

For the compound `O=C(NO)c1ccc(Cc2nnc(-c3ccc(F)cc3F)o2)cc1` [comp. 58, 4-((5-(2,4-difluorophenyl)-1,3,4-oxadiazol-2-yl)methyl)-N-hydroxybenzamide], the results for the pIC50 in assay [1] and in assay [2] were 6.23 and 6.55, respectively.

In the case of `O=C(NO)c1ccc(Cn2nnc(-c3cccs3)n2)cc1` [comp. 50, 4-[[5-(2-thienyl)tetrazol-2-yl]methyl]benzenecarbohydroxamic acid], the pIC50 in assay [1] is 6.40; in assay [2], 6.61.

Regarding `O=C(NO)c1cc(F)c(Cn2nnc(-c3cccs3)n2)c(F)c1` [comp. 65, 3,5-difluoro-4-[[5-(2-thienyl)tetrazol-2-yl]methyl]benzenecarbohydroxamic acid], the values for the pIC50 in assay [1] and in assay [2] were 5.84 and 6.01, respectively. Moreover, the “RS (relative T-reg suppression, AUC drug/AUC control)” value in assay [3] was determined as 4.4.

Regarding `O=C(NO)c1ccc(Cn2nnc(-c3ccc(C(F)(F)F)cc3)n2)cc1` [comp. 23, 4-[[5-[4-(trifluoromethyl)phenyl]tetrazol-2-yl]methyl]benzenecarbohydroxamic acid], the values for the pIC50 in assay [1] and in assay [2] were 5.96 and 6.31, respectively.

In the case of `Cn1c(Sc2c(F)cc(C(=O)NO)cc2F)nnc1C(c1ccccc1)c1ccccc1` [comp. 98, 4-[(5-benzhydryl-4-methyl-1,2,4-triazol-3-yl)sulfanyl]-3,5-difluoro-benzenecarbohydroxamic acid], the pIC50 in assay [1] was 5.83; in assay [2], 5.68.

For orientation: pIC50 means the IC50 on a negative log10 scale, so that one unit is a factor of ten.
